Laboratory results from US20020082273A1, “Agents for use in the treatment of alzheimer's disease” (priority 1998, published 2002).
Where “and” joins values, the source holds several entries; their conditions need not be identical. Equal entries are not always repeated. Entries after “also recorded” stand apart in the source; their conditions may differ. Where two headings read alike, the source gives them in different places.

Key:
[1] = tested on: Aβ deposits of AD-affected brain; assay: Extraction (solubilization) of Aβ from post-mortem AD brain tissue homogenates, western blot densitometry; assay type: biochemical, human
Aβ1-40 aggregates = biological target: T1, Aβ1-40 aggregates (Homo sapiens, UniProt P05067); assay: Resolubilization of in vitro metal- or pH-induced Aβ aggregates on filter; assay type: biochemical; conditions: chelator 2 μM in TBS
T1 construct: formed in vitro by the action of Cu^2+ or Zn^2+ upon Aβ1-40 was examined; purchased W. M. Keck Foundation Biotechnology Resource Laboratory (Yale University); host or cells: chemical synthesis
T1 sequence (P05067 672-711 limits assumed): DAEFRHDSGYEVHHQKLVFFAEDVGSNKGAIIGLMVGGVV
Protocol: Aggregates were transferred to a 0.2 μ nylon membrane by filtration. […] The membrane was fixed, probed with the anti-Aβ monoclonal antibody 6E10, and developed for exposure to ECL-film. […] Values are expressed as a percentage of Aβ signal after washing with TBS alone.
Aβ (10 ng/well in buffered saline) aggregation was induced by addition of metals (5 μM) or acidic conditions (pH 5.5). Aggregates were transferred to a 0.2 μ nylon membrane by filtration. […] The membrane was then fixed, probed with anti-Aβ monoclonal antibody 6E10 and developed for exposure to ECL-film. […] Values are expressed as a % of Aβ signal remaining on the filter after washing with TBS alone.

[2] = Clioquinol in humans: expected plasma levels and side effect; assay type: in vivo
[3] = Dissolving clioquinol: n-decane / PBS partition; assay type: physicochemical
Protocol: Next, the phases were allowed to separate. The lower phase (PBS) was collected and filtered to remove the residue which had formed at the phase interface upon extraction with the organic solvent. The concentration of clioquinol in the PBS was determined to be 800 nanomolar. This number was arrived at based on two assumptions: […]

[4] = oral dose of 200 mg/kg, rats; cited from earlier work
[5] = oral dose of 200 mg/kg, dogs; cited from earlier work
[6] = oral dose of 500 mg/kg, monkeys; cited from earlier work
[7] = sustained treatment, dose as low as 10 mg/kg/day; cited from earlier work
[8] = cited from earlier work
[9] = cited from earlier work; remark: listed apart in the source
[10] = with PBS at 1:1 mixture; assumption; cited from earlier work
[11] = in vivo, cited from earlier work
Alzheimer's disease = conditions: clinical administration; cited from earlier work
[12] = Metal reduction assay, Cu^2+ to Cu^+; assay type: biochemical; conditions: 10 μM Cu^2+, PBS pH 7.4, 1 hr 37° C.
Protocol: Aβ (10 μM in PBS, pH 7.4 or 6.8, as shown) was incubated for 30 minutes (37° C.) in the presence of Cu^2+10 μM ±Zn^2+ 10 μM). […] levels (n=3, ±SD) were assayed against a standard curve.
Polypeptides (10 μM) or Vitamin C (100 μM), metal ions (10 μM, Fe(NO3)3 or Cu(NO3)2), and reduced metal ion indicators, bathophenanthrolinedisulfonic acid (BP, for Fe^2+, Sigma, 200 μM) or bathocuproinedisulfonic acid (BC, for Cu^+, Sigma, 200 μM), were coincubated in phosphate buffered saline (PBS), pH 7.4, for 1 hr at 37° C. The metal ion solutions were prepared by direct dilution in the buffer from their aqueous stocks purchased from National Institute of Standards and Technology (NIST). […] In control samples, both metal ion and indicator were present to determine the background buffer signal. As a further control, both metal ion and peptide were present in the absence of indicator to estimate the contribution of light scattering due to turbidity to the absorbance reading at these wavelengths. The net absorbances (ΔA) at 536 nm or 483 nm were obtained by deducting the absorbances from these controls from the absorbances generated by the peptide and metal in the presence of the respective indicator.

[13] = Metal reduction assay, Fe^3+ to Fe^2+; assay type: biochemical; conditions: 10 μM Fe^3+, PBS pH 7.4, 1 hr 37° C.
Protocol: The metal reduction assay was performed using a 96-well microtiter plate (Costar) based upon a modification of established protocols (Landers, J. W., et al., Amer. Clin. Path. 29:590 (1958); Landers, J. W., et al., Clinica Chimica Acta 3:329 (1958)). Polypeptides (10 μM) or Vitamin C (100 μM), metal ions (10 μM, Fe(NO3)3 or Cu(NO3)2), and reduced metal ion indicators, bathophenanthrolinedisulfonic acid (BP, for Fe^2+, Sigma, 200 μM) or bathocuproinedisulfonic acid (BC, for Cu^+, Sigma, 200 μM), were coincubated in phosphate buffered saline (PBS), pH 7.4, for 1 hr at 37° C. The metal ion solutions were prepared by direct dilution in the buffer from their aqueous stocks purchased from National Institute of Standards and Technology (NIST). Absorbances were then measured at 536 mn (Fe^2+-BP complex) and 483 nm (Cu^+-BC complex), respectively, using a 96-well plate reader (SPECTRAmax 250, Molecular Devices, CA). In control samples, both metal ion and indicator were present to determine the background buffer signal. As a further control, both metal ion and peptide were present in the absence of indicator to estimate the contribution of light scattering due to turbidity to the absorbance reading at these wavelengths. The net absorbances (ΔA) at 536 nm or 483 nm were obtained by deducting the absorbances from these controls from the absorbances generated by the peptide and metal in the presence of the respective indicator.
The concentrations of reduced metal ions (Fe^2+ or Cu^+) were quantified based on the formula: Fe^2+ or Cu^+ (˜M)=A*10^6/(L*M), where L is the measured equivalent vertical pathlength for a well of 300 μL volume as described in the instrument's specifications manual (0.856 cm for Fe^2+; 1.049 cm for Cu^+); M is the known molecular absorbance (M^−1 cm^−1) which is 7124 (for Fe^2+-BP complex) or 2762 (for Cu^+-BC complex).

TBARS assay of OH. = assay type: biochemical; conditions: 10 μM peptide, 1 μM Fe^3+ or Cu^2+
Protocol: All data points are means ±SD, n=3.
The Thiobarbituric Acid-Reactive Substance (TBARS) assay for incubation mixtures with Fe^3+ or Cu^2+ was performed in a 96-well microtiter format modified from established protocols (Gutteridge et al. Biochim. Biophys. Acta 759: 38-41 (1983)). Aβ peptide species (10 μM) or Vitamin C (100 μM), were incubated with Fe^3+ or Cu^2+ (1 μM) and deoxyribose (7.5 mM, Sigma) in PBS, pH 7.4. Following incubation (37° C., 1 hour), glacial (17 M) acetic acid and 2-thiobarburic acid (1%, w/v in 0.05 M NaOH, Sigma) were added and heated (100° C., 10 min). The final mixtures were placed on ice for 1-3 minutes before absorbances at 532 nm were measured. The net absorbance change for each sample were obtained by deducting the absorbance from a control sample consisting of identical chemical components except for the Vitamin C or Aβ peptides.

[14] = H2O2 assay, production by Aβ peptides; assay type: biochemical; conditions: 1 μM Fe^3+, ambient O2, PBS pH 7.4, 1 hour 37° C.
Protocol: Polypeptides (10 μM) or Vitamin C (10 μM), Fe^3+ or Cu^2+ (1 μM) and a H2O2 trapping agent-Tris(2-Carboxyethyl)Phosphine Hydrochloride (TCEP, Pierce, 50 μM)-were co-incubated in PBS buffer (300 μL), pH 7.4, for 1 hour at 37° C. Under identical conditions, catalase (Sigma, 100 U/mL) was substituted for the polypeptides, to serve as a control signal representing 0 μM H2O2. Following incubation, the unreacted TCEP was detected by 5,5-Dithio-bis(2-Nitrobenzoic acid) (DTNB, Sigma, 50 KLM) which generates 2 moles of the coloured product.

[15] = Cu^2+-induced SDS-resistant polymerization of Aβ peptides, western blot image analysis; assay type: biochemical, human
Protocol: Following incubation (37° C.), aliquots of each reaction (2 ng peptide) were collected at 0 d, 1 d, 3 d and 5 d and western blotted using anti-Aβ monoclonal antibody 8E10 (FIG. 9). Migration of the molecular size markers are indicated (kDa). […] It should be noted that other means of visualizing and/or determining the presence or absence of polymerization other than western blot analysis may be used. Such other means include but are not limited to density sedimentation by centrifugation of the samples.
The generation of SDS-resistant Aβ polymers by metal ions was tested by incubating Cu^2+ (30 μM) or Zn^2+ (30 μM) at pH 6.6, 7.4 and 9.0 with Aβ1-40.
(0-30 μM) at pH 7.4 and 6.6 and the samples analyzed by Western blot and the signal quantitated using the Fluoro-S Image Analysis System (Bio-Rad, Hercules, Calif.) as previously described.

brain-derived Aβ = assay: Effect of added metals on solubility of brain-derived Aβ; assay type: biochemical, human; conditions: 2 mM in PBS
Protocol: Aβ in the high speed supernatant was visualized as described above.
The homogenates were spun at 100,000× g for 30 min and the supernatant discarded. […] Aβ in the soluble fraction was visualized as described above.

Aβ1-42 [16] = biological target: T2, Aβ1-42 (Homo sapiens, UniProt P05067); assay: Effect of chelators on metal reduction by Aβ1-42; assay type: biochemical; conditions: chelator 200 μM, Fe^3+ 10 μM, ambient oxygenation
T2 sequence (P05067 672-713 limits assumed): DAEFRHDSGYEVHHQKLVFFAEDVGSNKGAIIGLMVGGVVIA

Aβ1-42 [17] = biological target: T2, Aβ1-42; assay: Effect of metal chelators on H2O2 production from Aβ1-42; assay type: biochemical; conditions: 1 μM Fe^3+; chelator 200 μM

In the case of `Oc1c(I)cc(Cl)c2cccnc12` [clioquinol, 5-chloro-7-iodo-8-hydroxyquinoline], the “% of total Aβ extracted” value [1] is reported as 1.85% and 4.5% and 3.4%, the “% of total Aβ extracted, + PBS” value [1] is reported as 0.11% and 2.7% and 1.1% and the “Aβ recovered in the soluble phase compared to PBS alone” value [1] is reported as “doubling the recovery of Aβ; also recorded: more than twice”. For the same compound, the “increase in solubilization of Aβ relative to PBS alone” value [1] was 2.5 fold, the “Cu^2+-induced Aβ precipitate resolubilized” value (Aβ1-40 aggregates) was 85% and the “Zn^2+-induced Aβ precipitate resolubilized” value (Aβ1-40 aggregates) was 50%. The “pH 5.5-induced Aβ precipitate resolubilized” value (Aβ1-40 aggregates) was 10%, the peak plasma levels ([2]; 100 mg, three or four times a day) was “about 0.1 μM” and the expected plasma level ([2]; humans, within 30 minutes of ingesting 10 mg/kg body weight) was 0.5 µM. The “proportion dissolved in n-decane” value ([3]; 5.3 grams in 200 milliliter of n-decane) was 2%, the “concentration in PBS after partition from n-decane” value ([3]; PBS, pH 7.4, based on two assumptions) was 0.8 µM and the plasma levels [4] was 5 µM. For the same compound, the plasma levels [5] was 10 to 30 µM, the plasma levels [6] was 20 to 70 µM and the neurological side effect [7] was “subacute myclo-optic neuritis”. For the same compound, the “removal of a bolus dose from the brain” value ([8]; in vivo) was “almost completely removed from the brain within three hours”, the safety ([8]; many mammalian species, including rat and mouse) was “appears to be safe” and the blood levels ([8]; within one hour of ingestion, rats and mice) was 1 to 10 µM. For the same compound, the excretion half life ([9]; in vivo) was 1 to 3 h, the “time to peak plasma levels” value ([9]; oral ingestion) was no more than 30 min and the partitioning coefficient [10] was 1/1750. For the same compound, the “brain / blood-brain barrier penetration” value [11] was “freely permeable into the brain” and the “brain / blood-brain barrier penetration” value ([11]; listed as Clioquinol) was “crosses the blood brain barrier”.

For vitamin E, the “effect on progression of AD” value (Alzheimer's disease) is given as “delay the progression of clinical AD”.

In the case of “rat Aβ1-40: rat Aβ with substitutions R5→G, Y10→F, H13→R compared to human Aβ (DAEFGHDSGFEVRHQKLVFFAEDVGSNKGAIIGLMVGGVV; Amyloid-beta protein 40; UniProt P08592 672-711, looked up)”, the “reduction of available Cu^2+” value [12] is reported as “reduced no Cu^2+”, the “reduction of available Fe^3+” value [13] is reported as “did not significantly facilitate the reduction of Fe^3+” and the “OH. generation (TBARS)” value (TBARS assay of OH.) is reported as “did not generate OH”.

With “Aβ1-42: synthetic human Aβ peptide, residues 1-42” the “reduction of available Fe^3+” value [13] was 50%, the H2O2 generated [14] was 10 µM and the “SDS-resistant polymers: Monomer” value ([15]; pH 6.6, [Cu^2+] 0) was 61.0. The “SDS-resistant polymers: Pentamer” value ([15]; pH 6.6, [Cu^2+] 0) was 3.8, the “SDS-resistant polymers: Tetramer” value ([15]; pH 6.6, [Cu^2+] 0) was 8.6 and the “SDS-resistant polymers: Trimer” value ([15]; pH 6.6, [Cu^2+] 0) was 27.3. For the same compound, the “SDS-resistant polymers: Monomer” value ([15]; pH 6.6, [Cu^2+] 0.5) was 52.1, the “SDS-resistant polymers: Tetramer” value ([15]; pH 6.6, [Cu^2+] 0.5) was 12.0 and the “SDS-resistant polymers: Trimer” value ([15]; pH 6.6, [Cu^2+] 0.5) was 33.8. The “SDS-resistant polymers: Monomer” value ([15]; pH 6.6, [Cu^2+] 5) was 59.6, the “SDS-resistant polymers: Tetramer” value ([15]; pH 6.6, [Cu^2+] 5) was 7.1 and the “SDS-resistant polymers: Monomer” value ([15]; pH 6.6, [Cu^2+] 10) was 52.3. For the same compound, the “SDS-resistant polymers: Pentamer” value ([15]; pH 6.6, [Cu^2+] 10) was 2.2, the “SDS-resistant polymers: Tetramer” value ([15]; pH 6.6, [Cu^2+] 10) was 13.6 and the “SDS-resistant polymers: Monomer” value ([15]; pH 7.4, [Cu^2+] 0) was 76.61. The “SDS-resistant polymers: Pentamer” value ([15]; pH 7.4, [Cu^2+] 0) was 1.9, the “SDS-resistant polymers: Tetramer” value ([15]; pH 7.4, [Cu^2+] 0) was 5.5 and the “SDS-resistant polymers: Trimer” value ([15]; pH 7.4, [Cu^2+] 0) was 16.0. The “SDS-resistant polymers: Monomer” value ([15]; pH 7.4, [Cu^2+] 0.5) was 70.7, the “SDS-resistant polymers: Pentamer” value ([15]; pH 7.4, [Cu^2+] 0.5) was 2.5 and the “SDS-resistant polymers: Tetramer” value ([15]; pH 7.4, [Cu^2+] 0.5) was 6.2. For the same compound, the “SDS-resistant polymers: Trimer” value ([15]; pH 7.4, [Cu^2+] 0.5) was 20.5, the “SDS-resistant polymers: Monomer” value ([15]; pH 7.4, [Cu^2+] 1) was 64.9 and the “SDS-resistant polymers: Pentamer” value ([15]; pH 7.4, [Cu^2+] 1) was 4.0. For the same compound, the “SDS-resistant polymers: Tetramer” value ([15]; pH 7.4, [Cu^2+] 1) was 7.4, the “SDS-resistant polymers: Trimer” value ([15]; pH 7.4, [Cu^2+] 1) was 23.6 and the “SDS-resistant polymers: Monomer” value ([15]; pH 7.4, [Cu^2+] 5) was 56.1. The “SDS-resistant polymers: Pentamer” value ([15]; pH 7.4, [Cu^2+] 5) was 4.1, the “SDS-resistant polymers: Tetramer” value ([15]; pH 7.4, [Cu^2+] 5) was 8.7 and the “SDS-resistant polymers: Monomer” value ([15]; pH 7.4, [Cu^2+] 10) was 55.1. The “SDS-resistant polymers: Pentamer” value ([15]; pH 7.4, [Cu^2+] 10) was 4.3, the “SDS-resistant polymers: Tetramer” value ([15]; pH 7.4, [Cu^2+] 10) was 10.3 and the “SDS-resistant polymers: Monomer” value ([15]; pH 7.4, [Cu^2+] 30) was 57.1. For the same compound, the “SDS-resistant polymers: Pentamer” value ([15]; pH 7.4, [Cu^2+] 30) was 4.2 and the “SDS-resistant polymers: Tetramer” value ([15]; pH 7.4, [Cu^2+] 30) was 8.3.

In the case of `[Mg]` [magnesium], the “resolubilization of Aβ in tissue depleted of metals by EGTA” value (brain-derived Aβ) is reported as “led to resolubilization of the precipitated Aβ”.

For `CC(=O)N(O)CCCCCNC(=O)CCC(=O)N(O)CCCCCNC(=O)CCC(=O)N(O)CCCCCN` [DFO], the “effect on production of Fe^2+ by Aβ1-42” value (Aβ1-42 [16]) is given as “nearly halved”, the “effect on H2O2 formation by Aβ1-42” value (Aβ1-42 [17]) is given as “had no effect on H2O2 formation” and the “brain / blood-brain barrier penetration” value [11] is given as “does not easily penetrate the blood-brain barrier”. The “effect on progression of AD” value (Alzheimer's disease) was “effective in preventing the progression of AD”.
